Results as given in US20190282550A1, “METHOD OF TREATMENT” (The University of Melbourne, priority 2016, published 2019).

What was measured:
human Fallopian tubes = assay: Human Fallopian tubes treated ex vivo, western blot of apoptotic markers
Excerpt: Fallopian tube cells are obtained from (non pregnant) women undergoing hysterectomy and explants prepared as previously published (Shaw et al. (2011) Am J Pathol 178(1):253-60). […] Investigators stain the explants with M30 antibody by immunohistochemistry (measures late apoptosis) and obtain tissue lysates and perform western blot to measure the following proteins involved in apoptosis (Elmore (2007) supra): Bcl-2, Bax, Bid and Bim and quantify by densiometric analysis.
Human Fallopian tubes were obtained at hysterectomy (from women of child-bearing age).

[1] = system: primary first trimester placenta cells; assay: MTS cell viability assay, primary first trimester placenta cells (FIG. 1); type: cell-based, human
Protocol: For in vitro experiments, methotrexate and vinorelbine are administered at different doses (from 10 nM to 100,000 nM). When used, gefitinib is combined with methotrexate at 8 μM. Cells/tissues are treated for 24 hours and 48 hours. Methodology for the following standard techniques are: Tissue culture (Nilsson et al. (2013) Obstet Gynecol 122(4):737-44), RNA, qPCR, immunohistochemistry (Nilsson et al. (2013) supra; Onda et al. (2015) Hypertension:10.1161/hyptertensionaha.114.04781; Kaitu'u-Lino et al. Pregnancy Hypertension: An International Journal of Women's Cardiovascular Health 2014 placenta explants (Brownfoot et al. (2015) Hypertension), FACs sorting (Nilsson et al. (2013) supra), trophoblast purification ((Nilsson et al. (2013) supra; Onda et al. (2015) supra; Kaitu'u Lino et al. (2014) supra) and western blots (Onda et al. (2015) supra).
First trimester placenta tissue are obtained from women who are undergoing a termination of pregnancy. Placenta cells are purified as previously described (Nilsson et al. (2013) supra). They are treated with different doses (10-100,000 nM) of vinorelbine, methotrexate, methotrexate+gefitinib, gefitinib alone (and vehicle control). Cell viability is measured by MTS assay (see FIG. 1). To compare the relative potencies, the EC50 is calculated for the drugs (dose that induces 50% cell death).
VB doses were 10,000 times lower than MXT.

[2] = oral, 60 mg/m^2 once a week; cited from earlier work
HTR8 cells [3] = assay: FACs analysis of cell cycle progression; type: cell-based; details: 1 μM and 10 μM
Protocol: The effect of Vinorelbine on cell cycle progression in HTR8 cells was assessed using FACs analysis (FIGS. 8A through G). […] The proportion of cells in G1, S and G2 is graphically represented in n=3 replicates (D).

placenta cells (JEG3) = assay: Mouse xenograft model, placenta cells (JEG3) grafted subcutaneously
HTR8 cells [4] = system: HTR8 cells
[5] = system: first trimester placenta explants; assay: First trimester placenta explants, M30 cytodeath immunohistochemistry; type: cell-based, human; details: compared to methotrexate±gefitinib
Protocol: First trimester placenta explants are prepared and treated with the same drugs as above. After culture cells are fixed in paraformadehyde and immunohistochemistry staining performed with an M30 cytodeath antibody (detects apoptotic cell death). hCG secretion in to the cell culture media will be measured.

JEG3 = assay: MTS cell viability assay, JEG3 placenta cell line; type: cell-based
Protocol: (§1) The ability for vinorelbine to reduce placenta cell viability was assessed in two placenta cell lines (A;HTR8, B; JEG3) using a MTS cell viability assay.

HTR8 [6] = assay: MTS cell viability assay, HTR8 placenta cell line; type: cell-based
Protocol: as §1

placenta cells = assay: Apoptosis versus necrosis in placenta cells; type: cell-based
Protocol: Apoptosis incites less of an inflammatory response that may otherwise injure local tissues. In this Example, the number of apoptotic cells after treatment with vinorelbine is assessed.

[7] = Mouse fertility breeding experiments; details: 5 mg/kg intravenous to female mice 4 weeks prior to breeding
Protocol: Vinorelbine is administered by tail vein injection to wild type swiss mice. The drug (or vehicle controls) is administered by tail vein twice weekly (i.e. approximately mirroring the frequency of dosing for the xenograft studies). The middle dose that was effective in regressing tumor size (2.5 mg/kg) is to be used. After one month the mice are paired for breeding. It is proposed to sacrifice mice at about day 19 of pregnancy.
Parameters measured include 1) Number of fetuses' and implantations sites; 2) fetal crown rump length; 3) fetal weight; 4) placenta weights.

HTR8 [8] = assay: xCELLigence placenta cell proliferation; type: cell-based; details: for proliferation at 48 h post plating: compared to control
Protocol: The effect of vinorelbine on placenta cell (HTR8) proliferation was assessed using xCELLigence (C).

[9] = western blot densitometry, n=3 tubes
[10] = increasing doses, intravenously, vs. vehicle

Structure (SMILES): CCC1=C[C@@H]2CN(C1)Cc1c([nH]c3ccccc13)[C@@](C(=O)OC)(c1cc3c(cc1OC)N(C)[C@H]1[C@@](O)(C(=O)OC)[C@H](OC(C)=O)[C@]4(CC)C=CCN5CC[C@]31[C@@H]54)C2 [vinorelbine]
- markers of apoptosis in human Fallopian tubes (human Fallopian tubes; preliminary data): does not upregulate markers of apoptosis
- BAX protein expression (human Fallopian tubes; [9]): no effect
- BCL 2 protein expression (human Fallopian tubes; [9]): no effect
- inducing death of primary first trimester placenta cells ([1]; compared to methotrexate±gefitinib): significantly more effective in inducing death
- potency relative to methotrexate ([1]; placenta cell death): 1,000 to 10,000 times
- neutropenia occurrence [2]: 11%
- cell cycle progression (HTR8 cells [3]): inhibits cell cycle progression, with cells arrested in the G2 phase of mitosis
- cells halted at G2 (HTR8 cells [3]; compared to control, n=3 replicates): significantly more cells halted at G2
- serum human chorionic gonadotropin (hCG) levels (placenta cells (JEG3); [10]): significantly reduced
- tumor volume over time (placenta cells (JEG3); [10]): dose dependently reduced tumor volume over time
- tumor weight (placenta cells (JEG3); [10]): significantly reduced tumor weight
- regressing placenta cells in xenografted SCID mice (placenta cells (JEG3); proposed, compared to methotrexate±gefitinib): more effective than methotrexate±gefitinib
- percentage of dead cells (HTR8 cells [4]): No significant changes
- percentage of live HTR8 cells (HTR8 cells [4]): significantly reduced
- percentage of apoptotic HTR8 cells (HTR8 cells [4]; Annexin V expression): significantly increased
- M30 staining of placenta explants [5]: more intense M30 staining of placenta explants at a lower doses
- cell viability (JEG3): significant dose dependent reduction in cell viability
- cell viability (HTR8 [6]): significant dose dependent reduction in cell viability
- mode of placenta cell death (placenta cells): mainly by apoptosis rather than necrosis
- crown to rump length [7]: did not alter
- fetal weight [7]: did not alter
- fetal/placenta ratio [7]: did not alter
- litter size [7]: did not alter
- proliferation at 48 h post plating (HTR8 [8]): proliferation was reduced at 1, 10 and 100 μM
- HTR8 proliferation (HTR8 [8]; xCELLigence, over time): reduced HTR8 proliferation in a dose-dependent manner

Structure (SMILES): CN(Cc1cnc2nc(N)nc(N)c2n1)c1ccc(C(=O)N[C@@H](CCC(=O)O)C(=O)O)cc1 [methotrexate]
- proliferation at 48 h post plating (HTR8 [8]): no significant effect
